PMC4490944 (Journal of immunology (Baltimore, Md. : 1950), 2015)
Blank lines part the entries; values can stand above or below the molecule they belong to. No end group written: not given here. Alexa 488 = Alexa-488 fluorophore (from tetrafluorophenyl ester) on the Lys side-chain amine

Experiments:
MHC II = conditions: cited from earlier work
[1] = molecular target: T1, HLA-DR1 (DR1) (DRA*0101/DRB1*010101) (Homo sapiens, UniProt P01903+P01911, A100R/D57E/F55L/F60I/F76Y/I96L/L162R/M171V/P40L/Q125E/R42F/V115G/Y59C); test: MHC II stabilization assay; conditions: 1 μM DR1-W1A with 1 μM DM, or 1 μM DM and 50 μM W1A, 37 °C 1 hour, pH 5.5, Superdex200; at least four independent experiments
[2] = molecular target: T1, HLA-DR1 (DR1) (DRA*0101/DRB1*010101); test: Numerical modeling; type: binding; conditions: best fit value, Scheme V; DM-MHC resolves into inactive MHC II in the absence of peptides; kept the same for HA and CLIP; 0.4 μM DR1, 0.4 μM DM
[3] = Peptide occupancy, quantitative amino acid analysis of acid-eluted material; conditions: control DM sample
[4] = molecular target: DM-MHC II intermediate (complex of HLA-DM with active peptide-free DR1) (human) (UniProt P28067); test: fluorescence polarisation

- k5 [2]: 0.36 min⁻¹
Molecule: Ac-VSKMRMATPLLMQ [CLIP]
- intrinsic and DM-catalyzed dissociation half-life (MHC II; as previously reported): ~ 5 hours

- k6 (another combination that gives the same fit) [4]: 47500 M⁻¹ s⁻¹
- k6 (peptide binds the intermediate DM-MHC to give DM-MHCpep') [4]: 86800 M⁻¹ s⁻¹
- k-6 (peptide leaves DM-MHCpep') [4]: 0.022 min⁻¹
Molecule: Ac-VSK(Alexa 488)MRMATPLLMQ [Alexa488-labeled CLIP peptide (Ac-…)]

Continued, molecule first:

Molecule: Ac-GSDARFLRGYHQYA [W1A]
- susceptibility to DM-mediated peptide release (MHC II; DR1-bound): extremely susceptible to DM-mediated peptide release
- inhibition of aggregation of DR1 loaded with weakly binding peptide W1A [1]: Excess of peptides but not DM could inhibit the aggregation of MHC II

Molecule: DM: soluble extracellular domains of recombinant DM expressed in Drosophila S2 cells
- amino acid content of acid-eluted material [3]: 3.46 nmol amino acid per 50 nmol protein
